Earlier results on one molecule are cited in PMC9796293 (British Journal of Clinical Pharmacology, 2022).

This series has as its system monocytes.

Consider `O=C(CCCCCCC(=O)Nc1ccc(CN[C@H](C(=O)OC2CCCC2)c2ccccc2)cc1)NO` [tefinostat], for which the “lowest dose that induced monocyte histone acetylation” value (Phase I study in cancer patients ref 20) is 40 mg. In addition, the monocytopaenia entry (clinical ref 20) is reported as “not observed”.
